Test results taken from patent US20220249347A1, “Composition and Method Containing Pea and Quinoa Natural Peptides And Niacinamide to Enhance Skin Glow, Radiance And Even Skin Tone” (TRI-K Industries, Inc., priority 2021, published 2022).

System: RHE-MEL 3D in vitro Caucasian skin model
Experiment: Skin pigmentation (ITA°) on melanized reconstructed human epidermis 3D model RHE-MEL
Format: cell-based
Conditions: 14 days study, treated daily for 10 days; Skin Care Composition at 1%, niacinamide at same use level; versus untreated
Method: The protocol for this study including the following. A melanized reconstructed human epidermis 3D Model (RHE-MEL) (in vitro Caucasian skin model) was used. The study duration was for 14 days. The RHE-MEL 3D in vitro skin tissues were allowed to grow in the first 4 days. The 3D skin tissues were treated every day with the materials for 10 days. The following samples were used: Untreated sample, Benchmark Niacinamide (at same use level as in Skin Care Composition), and Skin Care Composition used at 1%. Concentrations of materials were predetermined based on screening MTT assay. A C-Cube Dermoscope® (a high quality magnifying lens and a powerful lighting system used to evaluate pigmented skin lesions, and can diagnose melanoma), was used coupled with C-Cube clinical software for image analysis. Skin pigmentation was analyzed via high resolution pictures obtained from the C-Cube Dermoscope® coupled with an image analysis software. ITA° parameter was measured as degree of pigmentation of the skin directly on in vitro 3D RHE-MEL skin model. Statistical analysis was done using the Student T-test with a confidence level of (p<0.05).
In this 3D RHE-MEL in vitro Caucasian model skin measured was the intensity of the skin pigmentation degree by ITA° parameter (individual typological angle). […]

NC(=O)c1cccnc1 [Niacinamide]
ITA° (individual typology angle), degree of skin pigmentation: increased the ITA°
